Results from patent publication US10206930B2, “Methods for treating T-cell acute lymphoblastic leukemia” (New York University, priority 2015, dated 2019).

Columns and labels:
[1] = system: myeloid leukaemia cells, stromal cells and haematopoietic progenitor cells; test: Growth of non-T-ALL control cells under GSKJ4; format: cell-based; settings: FIGS. 12L-12M
T-ALL cells = test: IC50 of GSKJ4 on T-ALL cell proliferation, normalized to control inhibitor GSKJ5; format: cell-based; settings: Homo sapiens, 120 h, 5 days treatment, FIG. 11A CUTLL1, read-out: IC50 determined for T-ALL cells
[2] = system: human T-ALL cell lines and primary human T-ALL cells; test: Cell growth, annexin V apoptosis and BrdU cell cycle analysis of T-ALL cells; format: cell-based; parameters: dose or concentration left out as unconfirmed
Description: Mice, Cell Culture and Primary Cell Samples. The Jmjd3 (Satoh et al., “The Jmjd3-Irf4 Axis Regulates M2 Macrophage Polarization and Host Responses Against Helminth Infection,” Nature Immunol. 11:936-944 (2010), which is hereby incorporated in its entirety) and Utx (Welstead et al., “X-linked H3K27me3 Demethylase Utx is Required for Embryonic Development in a Sex-Specific Manner,” Proc. Natl. Acad. Sci. USA 109:13004-13009 (2012), which is hereby incorporated by reference in its entirety) knockout mouse models, as well as the corresponding genotyping strategy, have been described previously. All animals used in this study were treated according to IACU protocols. The human T-ALL cell lines CUTLL1 (Palomero et al., “CUTLL1, a Novel Human T-Cell Lymphoma Cell Line With t(7; 9) Rearrangement, Aberrant NOTCH1 Activation and High Sensitivity to c-Secretase Inhibitors,” Leukemia 20:1279-1287 (2006), which is hereby incorporated by reference in its entirety), P12-Ichikawa, Loucy, DND41, CEM and Jurkat and the myeloid leukaemia cell lines (THP-1 and HL-60), as well as the mouse T-ALL line (720) (Sharma et al., “Notch1 Contributes to Mouse T-cell Leukemia by Directly Inducing the Expression of c-myc,” Mol. Cell. Biol. 26:8022-8031 (2006), which is hereby incorporated by reference in its entirety), were cultured in RPMI 1640 medium supplemented with 20% FBS and penicillin and streptomycin. […] Primary human samples were collected by collaborating institutions with informed consent and were analyzed under the supervision of the Columbia University Medical Center and St. Jude Children's Research Hospital Institutional Review Boards. […]
T-ALL cells were infected twice with shRNA-expressing retroviruses and selected using puromycin. […] For the cell cycle analysis, 5-bromodeoxyuridine (BrdU; 10 mM) was added for a 1 hour pulse, and incorporation into DNA was determined by using the BrdU Flow Kit (BD Biosciences). Apoptosis was studied by quantification of annexin V staining using the BD Biosciences kit and flow cytometry according to standard protocols provided by the manufacturer. […]

[3] = system: H3K27me3 levels at repressed genes; test: H3K27me3 ChIP at repressed genes upon GSKJ4 treatment; format: cell-based, human; settings: 24 to 72 hours post-GSKJ4 treatment
Protocol: ChIP experiments were performed as described previously (Ntziachristos et al., “Genetic Inactivation of the Polycomb Repressive Complex 2 in T Cell Acute Lymphoblastic Leukemia,” Nature Med. 18:298-303 (2012), which is hereby incorporated by reference in its entirety). In brief, for the analysis of histone marks, the cells were fixed with 1% formaldehyde for 10 minutes at 25° C. and lysed them by the addition of nucleus incubation buffer (15 mM Tris, pH 7.5, 60 mM KCl, 150 mM NaCl, 15 mM MgCl2, 1 mM CaCl2, 250 mM sucrose and 0.3% NP-40) and incubation at 4° C. for 10 minutes. […]
First, enriched ChIP-seq windows were identified separately for each of the two samples under comparison using a window-based approach and the binomial probability distribution to compare signal reads with control reads in each window. Subsequently, for each genomic window enriched in at least one of the two samples, the total number of reads was determined, and the window read counts were normalized using quantile normalization across biological replicates and samples before comparison. […] This comparison was performed independently at different H3K27me3 read density levels to control for artificially high fold changes due to low read counts in the denominator. […]

[4] = system: human T-ALL cells (CUTLL1); test: Genome-wide expression analysis (RNA-seq) of treated T-ALL cells; format: cell-based
Protocol: Whole RNA was extracted from 1-5×10^6 T-ALL cells or primary cells using the RNeasy kit (QIAGEN) according to the manufacturer's protocol. Poly(A)^+ RNA was enriched using magnetic oligo(dT)-containing beads (Invitrogen). cDNA was prepared and strand-specific libraries were constructed using the dUTP method as described previously (Zhong et al., “High-Throughput Illumina Strand-Specific RNA Sequencing Library Preparation,” Cold Spring Harb. Protoc. 2011:940-949 (2011), which is hereby incorporated by reference in its entirety). Libraries were sequenced on the IIlumina HiSeq 2000 using the 50-base-pair single-read method.
Differential gene expression analysis was performed for each matched knockdown versus control pair, separately in each biological or technical replicate in each of two cell lines (CUTLL1 and CEM). Three types of comparisons were tested: (1) JMJD3 knockdown versus Renilla; (2) JMJD3 knockdown versus UTX knockdown; and (3) UTX knockdown versus Renilla. DEGseq44 was used to analyze (a) matched knockdown—Renilla replicates in separate DEGseq runs and (b) all replicates on a combined DEGexp run. For the mouse (Utx knockout) samples, spleen and bone marrow from a wild-type male (referred to as animal #9), as well as spleen from a wild-type female (animal #10), were compared with spleen and bone marrow from a knockout male (#23) and spleen from another knockout male (#27) (see also the GEO accession G5E56696). For illustration, scatter plots (FIG. 4D and FIGS. 5G-I) were created using values obtained from DEGseq analysis of merged biological and/or technical replicates. Gene RNA-seq FPKM values were computed using GenomicTools (Tsirigos et al., “GenomicTools: A Computational Platform for Developing High-Throughput Analytics in Genomics,” Bioinformatics 28:282-283 (2012), which is hereby incorporated by reference in its entirety). The P-value cutoff for differential expression was set at 1×10^−5, with the minimum absolute log2 fold change set at 0.5.

[5] = system: T-ALL cell lines (CUTLL1, CEM and P12); test: Subcutaneous or intravenous xenograft of shRNA-treated T-ALL cell lines; format: in vivo, mouse; settings: immunocompromised NRG mice; compared with shRenilla-treated cell lines
Protocol: Studies were conducted as previously published (Ntziachristos et al., “Genetic Inactivation of the Polycomb Repressive Complex 2 in T Cell Acute Lymphoblastic Leukemia,” Nature Med. 18:298-303 (2012), which is hereby incorporated by reference in its entirety). In both cases, CUTLL1, P12 or CEM T-ALL cells expressing luciferase (FUW-LUC) and the corresponding shRNA (shJMJD3, shUTX or shRenilla) were used. For the intravenous studies, 1×10^6 cells were injected retroorbitally into sublethally irradiated female NRG (NOD Rag1^−/−Il2rg^−/−) mice. For subcutaneous studies, 1×10^6 cells were mixed with an equal volume of BD Matrigel basement membrane and injected into the flanks of female NOD-SCID mice. In both cases, cell growth was monitored every 2 days using IVIS (Caliper, PerkinElmer).

human T-ALL cells = test: shRNA knockdown: loss of representation studies and apoptosis assays; format: cell-based; settings: shRNA treatment
Protocol: T-ALL cells were infected twice with shRNA-expressing retroviruses and selected using puromycin. Expression studies took place at different time points during the selection period, and the results are presented from day 4 during selection. […] For the cell cycle analysis, 5-bromodeoxyuridine (BrdU; 10 mM) was added for a 1 hour pulse, and incorporation into DNA was determined by using the BrdU Flow Kit (BD Biosciences). Apoptosis was studied by quantification of annexin V staining using the BD Biosciences kit and flow cytometry according to standard protocols provided by the manufacturer. Doxycycline was used at […] final concentration.
Protein-G-coated magnetic beads were purchased from Invitrogen. […] Reporter fluorescence was used (as determined by flow cytometry) for the quantification of shRNA.

[6] = GSKJ4 vs control inhibitor GSKJ5

CCOC(=O)CCNc1cc(N2CCc3ccccc3CC2)nc(-c2ccccn2)n1 [GSKJ4, ethyl 3-((6-(4,5-dihydro-1H-benzo[d]azepin-3(2H)-yl)-2-(pyridin-2-yl)pyrimidin-4-yl)amino)propanoate]
growth of myeloid leukaemia cells, stromal cells and haematopoietic progenitor cells [1]: unaffected
IC50 (T-ALL cells): 2000 nM
apoptosis (annexin V) [2, 6]: increased apoptosis
cell cycle effect [2, 6]: cell cycle arrest
growth of human T-ALL cell lines and primary human T-ALL cells ([2]; GSKJ4 vs control inhibitor GSKJ5, 24-72 hours): significantly affected the growth
H3K27me3 levels at repressed genes [3]: increase in the H3K27me3 levels
number of downregulated genes ([4]; CUTLL1, 72 hours of treatment with GSKJ4): 486 genes

B1: shJMJD3A: shRNA against JMJD3, SEQ ID NO: 3 (nucleic acid)
chain: CAGGGAAGTTTCGAGAAGTCCTATAGTGAAGCCACAGATGTATAGGACTCTCGAACTTCCCTT
in vivo growth of transplanted T-ALL cells [5]: significant growth disadvantage

B2: shUTX: shRNA against UTX, SEQ ID NO: 5 (nucleic acid)
chain: ACACAAGGTAGTCTACAGAATATAGTGAAGCCACAGATGTATATTCTGTAGACTACCTTGTGG
viability of leukaemic cells (human T-ALL cells): not
number of significantly downregulated protein-coding genes ([4]; shRNA knockdown): 46 genes
number of significantly upregulated protein-coding genes ([4]; shRNA knockdown): 189 genes

B3: shJMJD3B: shRNA against JMJD3, SEQ ID NO: 4 (nucleic acid)
chain: ACACCAGCAGTAGCAACAGCAATAGTGAAGCCACAGATGTATTGCTGTTGCTACTGCTGGTGG
in vivo growth of transplanted T-ALL cells [5]: significant growth disadvantage
